We go through two molecules from publication PMC10303200 (ACS Central Science, 2023).

Values joined by “and” are separate entries in the source; they are usually repeats but may differ in a detail not shown here. Equal values may be shown once. Read-outs that look alike come from different tables or passages of the source.

The subject of assay [1] is SARS-CoV-2 (hCoV-19/Canada/ON-VIDO-01/2020), ACE2+ HEK293 cells. It counts as cell-based.
Assay [2] has as its system GFP-encoding SARS-CoV-2 pseudotyped virus, ACE2+ HEK293 cells. Type of assay: cell-based.
Assay [3] has as its target T1, CD22-Fc (Homo sapiens, UniProt P20273).
T1 construct: His6 (C); made in house; host or cells: wild-type CHO cells
T1 sequence (P20273 20-332 limits assumed): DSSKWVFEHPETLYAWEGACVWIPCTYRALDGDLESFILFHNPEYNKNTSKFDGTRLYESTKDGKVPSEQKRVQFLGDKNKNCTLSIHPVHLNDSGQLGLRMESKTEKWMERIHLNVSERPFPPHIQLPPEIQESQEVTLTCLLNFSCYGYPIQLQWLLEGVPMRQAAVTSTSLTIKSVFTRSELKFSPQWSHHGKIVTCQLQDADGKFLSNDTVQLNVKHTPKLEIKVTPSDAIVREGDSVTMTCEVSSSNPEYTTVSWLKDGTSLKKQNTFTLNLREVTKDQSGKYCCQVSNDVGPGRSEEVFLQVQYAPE
Description: COIN-CaR-nMS. Type of assay: binding. The note with it: N-glycan natural libraries and G21; pH 6.9.

Assay [4] deals with Siglec-7. The following applies: ITC; cited from earlier work. (In general: Isothermal titration calorimetry measures the heat released or taken up as one component is titrated into another.)
Assay [5] deals with SNA (Sambucus nigra, UniProt Q41358). Description: biochemical. Type of assay: binding. The following applies: apparent Kd by ITC (Literature).
Chain of SNA (Q41358 309-570 limits assumed): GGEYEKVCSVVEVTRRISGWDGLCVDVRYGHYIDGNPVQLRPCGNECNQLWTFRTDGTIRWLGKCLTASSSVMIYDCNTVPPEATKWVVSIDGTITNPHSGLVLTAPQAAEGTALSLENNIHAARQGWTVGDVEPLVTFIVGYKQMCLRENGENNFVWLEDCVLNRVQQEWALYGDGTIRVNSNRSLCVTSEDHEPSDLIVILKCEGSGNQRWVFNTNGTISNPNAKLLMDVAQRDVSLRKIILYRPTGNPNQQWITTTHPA
Chain of SNA (Q41358 29-289 partner limits assumed): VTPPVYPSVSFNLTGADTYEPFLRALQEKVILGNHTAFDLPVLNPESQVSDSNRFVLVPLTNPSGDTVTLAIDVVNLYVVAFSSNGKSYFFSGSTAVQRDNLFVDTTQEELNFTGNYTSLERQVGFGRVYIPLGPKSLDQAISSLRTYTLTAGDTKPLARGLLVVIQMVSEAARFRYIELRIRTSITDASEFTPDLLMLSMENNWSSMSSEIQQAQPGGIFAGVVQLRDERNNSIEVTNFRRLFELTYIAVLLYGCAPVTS
For assay [6], the target named is SNA (Sambucus nigra agglutinin) (Sambucus nigra, UniProt Q41358). Description: biochemical. It counts as binding. The note with it: for Kd: Kd (COIN-CaR-nMS).
Chain of SNA (Sambucus nigra agglutinin) (Q41358 309-570 limits assumed): as the sequence (Q41358 309-570 limits assumed) above
Chain of SNA (Sambucus nigra agglutinin) (Q41358 29-289 partner limits assumed): as the sequence (Q41358 29-289 partner limits assumed) above
In assay [7] the target is Sig7-Fc (Homo sapiens, UniProt Q9Y286). Kind of assay: COIN-CaR-nMS. It counts as binding. Further details: Siglec 7-Fc (Sig7-Fc, residue 1–345, MW 150 kDa); His6 (C); made in house; host or cells: wild-type CHO cells.
Chain of Sig7-Fc (Q9Y286 19-345): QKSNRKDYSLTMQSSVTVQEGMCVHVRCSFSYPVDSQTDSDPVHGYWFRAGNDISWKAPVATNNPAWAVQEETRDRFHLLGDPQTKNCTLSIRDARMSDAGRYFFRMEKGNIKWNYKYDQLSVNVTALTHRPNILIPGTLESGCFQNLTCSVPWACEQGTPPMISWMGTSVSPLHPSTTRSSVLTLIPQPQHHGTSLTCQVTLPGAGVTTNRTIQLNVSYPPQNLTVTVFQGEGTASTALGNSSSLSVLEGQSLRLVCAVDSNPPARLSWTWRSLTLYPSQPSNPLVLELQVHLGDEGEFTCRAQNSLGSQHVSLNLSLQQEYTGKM

On to `O=C1N[C@@H]2[C@@H](O)[C@@H](O)[C@H](O)[C@@H](CO)N2C1=O` [kifunensine], for which the “infection by authentic virus (viral titers, PFU)” value in assay [1] is “concentration-dependent decrease in infection”. For the same molecule, the “infection by pseudotyped virus (%GFP+ cells)” value in assay [2] is “decreased significantly”.
Regarding `CC(=O)N[C@H]1[C@H]([C@H](O)[C@H](O)CO)O[C@@](OC[C@H]2O[C@@H](O[C@H]3[C@H](O)[C@@H](O)C(O)O[C@@H]3CO)[C@H](O)[C@@H](O)[C@H]2O)(C(=O)O)C[C@@H]1O` (stereo partly drawn) [Glycan G21, α-D-Neu5Ac-(2→6)-β-D-Gal-(1→4)-D-Glc], the Kd was 40 µM in assay [3]; 240 µM in assay [4]; 1980 nM and 2000 nM in assay [5]; 1600 ± 400 nM in assay [6]; 2000 nM and 1500 nM and 3300 nM and 1700 nM and 1600 nM and 1800 nM in assay [6] (two ligands); 284 ± 70 µM in assay [7] (G21 0.5 μM and G29 30 μM, read-out: Kd (COIN-CaR-nMS), two ligands). Besides, the Kd came out at 239 ± 50 µM in assay [7] (G21 1.0 μM and G29 30 μM, read-out: Kd (COIN-CaR-nMS), two ligands); 366 ± 10 µM in assay [7] (G21 5 μM and G29 30 μM, read-out: Kd (COIN-CaR-nMS), two ligands); 249 ± 20 µM in assay [7] (G21 10 μM and G29 30 μM, read-out: Kd (COIN-CaR-nMS), two ligands); 236 µM in assay [7] (N-glycan natural libraries and purified oligosaccharides, pH 6.9, read-out: Kd). Moreover, in assay [6], the “fold weaker ligand than G23” value was 3 fold.
